In paper PMC8296573, “Synthesis and Biological Evaluation of Fingolimod Derivatives as Antibacterial Agents” (ACS Omega, 2021):
≈ marks a conversion by molar mass, not a printed value. Read-outs that look alike come from different tables or passages of the source. Marks after values point to notes of the source that are not given here.

What was measured:
S. aureus ATCC 25923 [1] = experiment: Antibacterial activity, post-exposure on preformed 18-h-old biofilms; type: cell-based, Staphylococcus aureus; conditions: ± SD; for inhibition at 25 µM / inhibition at 50 µM / inhibition at 100 µM / inhibition at 200 µM: Staphylococcus aureus; for inhibition at 25 µM: ATCC25923, 25 µM; for inhibition at 50 µM: ATCC25923, 50 µM; for inhibition at 100 µM: ATCC25923, 100 µM; for inhibition at 200 µM: ATCC25923, 200 µM
Method in brief: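 Biofilms grown 18 h without compound, medium then replaced and compound added for a further 24 h. Planktonic OD and resazurin (20 μM final) fluorescence (ex 560/em 590 nm) read; washed biofilms stained with 20 μM resazurin 30 min at 37 °C, then ethanol-fixed and crystal violet-stained, absorbance 595 nm.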

S. aureus ATCC 25923 [2] = experiment: Antibacterial activity, pre-exposure (planktonic cells and biofilm formation); type: cell-based, Staphylococcus aureus; conditions: for inhibition at 5 µM / inhibition at 10 µM / inhibition at 15 µM / inhibition at 25 µM / Average inhibition %, biofilms viability / Average inhibition %, planktonic cells viability: pre-exposure, ± SD
Method in brief: (§1)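 Compounds in DMSO were plated before bacteria were added (pre-exposure) and incubated 18 h aerobically at 37 °C with shaking. Planktonic cells were read by OD and resazurin fluorescence (20 μM final; ex 560/em 590 nm). Biofilms were read by resazurin, then crystal violet (A595) for total biomass.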

P. aeruginosa ATCC 9027 = experiment: Antibacterial activity, pre-exposure; type: cell-based, Pseudomonas aeruginosa; conditions: for Average inhibition %, biofilms viability / Average inhibition %, planktonic cells viability / inhibition at 50 µM / inhibition at 100 µM / inhibition at 150 µM / inhibition at 200 µM: P. aeruginosa ATCC 9027, pre-exposure, ± SD; for inhibition at 50 µM / inhibition at 100 µM / inhibition at 150 µM / inhibition at 200 µM: ATCC9027
Method in brief: as §1

A. baumannii NCTC 13423 = experiment: Antibacterial activity, pre-exposure; type: cell-based, Acinetobacter baumannii; conditions: for Average inhibition %, biofilms viability / Average inhibition %, planktonic cells viability / inhibition at 10 µM / inhibition at 15 µM / inhibition at 25 µM / inhibition at 50 µM: A. baumannii NCTC 13423, pre-exposure, ± SD
Method in brief: as §1

[3] = read-out: Average inhibition %, biofilms biomass
[4] = read-out: Average inhibition %, planktonic cells turbidity

CCCCCCCCc1ccc(CCC(N)(CO)CO)cc1 [fingolimod, Fingolimod]
Average inhibition %, biofilms viability (S. aureus ATCC 25923 [1]; 25 µM): 19.2 ± 14.5%
Average inhibition %, planktonic cells viability (S. aureus ATCC 25923 [1]; 25 µM): 7.8 ± 3.6%
Average inhibition %, biofilms viability (S. aureus ATCC 25923 [1]; 50 µM): 35 ± 7%
Average inhibition %, planktonic cells viability (S. aureus ATCC 25923 [1]; 50 µM): 2.9 ± 2.6%
Average inhibition %, biofilms viability (S. aureus ATCC 25923 [1]; 100 µM): 52.2 ± 12.4%
Average inhibition %, planktonic cells viability (S. aureus ATCC 25923 [1]; 100 µM): 48.9 ± 16.2%
Average inhibition %, biofilms viability (S. aureus ATCC 25923 [1]; 200 µM): 77.3 ± 19%
Average inhibition %, planktonic cells viability (S. aureus ATCC 25923 [1]; 200 µM): 90.5 ± 9.9%
inhibition at 25 µM (S. aureus ATCC 25923 [1]; [3]): 39.7 ± 16.2%
inhibition at 25 µM (S. aureus ATCC 25923 [1]; [4]): 1.1 ± 2%
inhibition at 50 µM (S. aureus ATCC 25923 [1]; [3]): 60.7 ± 12.4%
inhibition at 50 µM (S. aureus ATCC 25923 [1]; [4]): 13.8 ± 11.2%
inhibition at 100 µM (S. aureus ATCC 25923 [1]; [3]): 67.3 ± 9.5%
inhibition at 100 µM (S. aureus ATCC 25923 [1]; [4]): 42.4 ± 7%
inhibition at 200 µM (S. aureus ATCC 25923 [1]; [3]): 71 ± 11%
inhibition at 200 µM (S. aureus ATCC 25923 [1]; [4]): 75.5 ± 11%
MIC (S. aureus ATCC 25923 [2]; Staphylococcus aureus, ATCC25923, lowest concentration with no visible growth (>90% inhibition of turbidity and viability of planktonic cells), 18 h, read-out: MIC S. aureus ATCC 25923): 15 µM (≈ 4.61 µg/mL)
inhibition at 5 µM (S. aureus ATCC 25923 [2]; Staphylococcus aureus, ATCC25923, 5 µM, read-out: Average inhibition %, biofilms biomass): 37 ± 11.2%
inhibition at 5 µM (S. aureus ATCC 25923 [2]; Staphylococcus aureus, ATCC25923, 5 µM, read-out: Average inhibition %, planktonic cells turbidity): 25 ± 10.6%
inhibition at 10 µM (S. aureus ATCC 25923 [2]; Staphylococcus aureus, ATCC25923, 10 µM, read-out: Average inhibition %, biofilms biomass): 42.2 ± 5%
inhibition at 10 µM (S. aureus ATCC 25923 [2]; Staphylococcus aureus, ATCC25923, 10 µM, read-out: Average inhibition %, planktonic cells turbidity): 36.7 ± 10%
inhibition at 15 µM (S. aureus ATCC 25923 [2]; Staphylococcus aureus, ATCC25923, 15 µM, read-out: Average inhibition %, biofilms biomass): 91.7 ± 6%
inhibition at 15 µM (S. aureus ATCC 25923 [2]; Staphylococcus aureus, ATCC25923, 15 µM, read-out: Average inhibition %, planktonic cells turbidity): 99.8 ± 0.1%
inhibition at 25 µM (S. aureus ATCC 25923 [2]; Staphylococcus aureus, ATCC25923, 25 µM, read-out: Average inhibition %, biofilms biomass): 90.8 ± 6.9%
inhibition at 25 µM (S. aureus ATCC 25923 [2]; Staphylococcus aureus, ATCC25923, 25 µM, read-out: Average inhibition %, planktonic cells turbidity): 99.8 ± 0.1%
Average inhibition %, biofilms viability (S. aureus ATCC 25923 [2]; 5 µM): 38.7 ± 5.5%
Average inhibition %, planktonic cells viability (S. aureus ATCC 25923 [2]; 5 µM): 16.1 ± 26.5%
Average inhibition %, biofilms viability (S. aureus ATCC 25923 [2]; 10 µM): 41.5 ± 7.1%
Average inhibition %, planktonic cells viability (S. aureus ATCC 25923 [2]; 10 µM): 17.2 ± 23.4%
Average inhibition %, biofilms viability (S. aureus ATCC 25923 [2]; 15 µM): 99.7 ± 0.2%
Average inhibition %, planktonic cells viability (S. aureus ATCC 25923 [2]; 15 µM): 99.9 ± 0%
Average inhibition %, biofilms viability (S. aureus ATCC 25923 [2]; 25 µM): 99.5 ± 0.1%
Average inhibition %, planktonic cells viability (S. aureus ATCC 25923 [2]; 25 µM): 99.9 ± 0.1%
Average inhibition %, biofilms viability (P. aeruginosa ATCC 9027; 50 µM): 12.4 ± 13.4%
Average inhibition %, planktonic cells viability (P. aeruginosa ATCC 9027; 50 µM): 43.9 ± 35.5%
Average inhibition %, biofilms viability (P. aeruginosa ATCC 9027; 100 µM): 36.5 ± 23.1%
Average inhibition %, planktonic cells viability (P. aeruginosa ATCC 9027; 100 µM): 92.5 ± 4.8%
Average inhibition %, biofilms viability (P. aeruginosa ATCC 9027; 150 µM): 42.4 ± 25.3%
Average inhibition %, planktonic cells viability (P. aeruginosa ATCC 9027; 150 µM): 94.2 ± 3.6%
Average inhibition %, biofilms viability (P. aeruginosa ATCC 9027; 200 µM): 47.5 ± 22.6%
Average inhibition %, planktonic cells viability (P. aeruginosa ATCC 9027; 200 µM): 95 ± 1.2%
MIC (P. aeruginosa ATCC 9027; Pseudomonas aeruginosa, ATCC9027, pre-exposure, Inactive = no activity up to 200 μM, > = some inhibition but no MIC reached, read-out: MIC P. aeruginosa ATCC 9027): > 200 µM
inhibition at 50 µM (P. aeruginosa ATCC 9027; Pseudomonas aeruginosa, 50 µM, read-out: Average inhibition %, biofilms biomass): 30.1 ± 16.2%
inhibition at 50 µM (P. aeruginosa ATCC 9027; Pseudomonas aeruginosa, 50 µM, read-out: Average inhibition %, planktonic cells turbidity): 51.5 ± 24%
inhibition at 100 µM (P. aeruginosa ATCC 9027; Pseudomonas aeruginosa, 100 µM, read-out: Average inhibition %, biofilms biomass): 36.9 ± 13.7%
inhibition at 100 µM (P. aeruginosa ATCC 9027; Pseudomonas aeruginosa, 100 µM, read-out: Average inhibition %, planktonic cells turbidity): 85.9 ± 3.6%
inhibition at 150 µM (P. aeruginosa ATCC 9027; Pseudomonas aeruginosa, 150 µM, read-out: Average inhibition %, biofilms biomass): 40.7 ± 17.8%
inhibition at 150 µM (P. aeruginosa ATCC 9027; Pseudomonas aeruginosa, 150 µM, read-out: Average inhibition %, planktonic cells turbidity): 86.8 ± 3.4%
inhibition at 200 µM (P. aeruginosa ATCC 9027; Pseudomonas aeruginosa, 200 µM, read-out: Average inhibition %, biofilms biomass): 45.4 ± 18.5%
inhibition at 200 µM (P. aeruginosa ATCC 9027; Pseudomonas aeruginosa, 200 µM, read-out: Average inhibition %, planktonic cells turbidity): 85.1 ± 3.8%
MIC P. aeruginosa ATCC 9027 (P. aeruginosa ATCC 9027; pre-exposure, Inactive = no activity up to 200 μM, > = some inhibition but no MIC reached, listed as Fgd): > 200 ^b μM
Average inhibition %, biofilms viability (A. baumannii NCTC 13423; 10 µM): 0.2 ± 0.5%
Average inhibition %, planktonic cells viability (A. baumannii NCTC 13423; 10 µM): 5.9 ± 4.9%
Average inhibition %, biofilms viability (A. baumannii NCTC 13423; 15 µM): 63.6 ± 31.5%
Average inhibition %, planktonic cells viability (A. baumannii NCTC 13423; 15 µM): 74.1 ± 38.2%
Average inhibition %, biofilms viability (A. baumannii NCTC 13423; 25 µM): 97.6 ± 2.3%
Average inhibition %, planktonic cells viability (A. baumannii NCTC 13423; 25 µM): 99.5 ± 0.3%
Average inhibition %, biofilms viability (A. baumannii NCTC 13423; 50 µM): 98.4 ± 1.1%
Average inhibition %, planktonic cells viability (A. baumannii NCTC 13423; 50 µM): 99.4 ± 0.4%
inhibition at 10 µM (A. baumannii NCTC 13423; Acinetobacter baumannii, NCTC13423, 10 µM, read-out: Average inhibition %, biofilms biomass): 1.9 ± 3.9%
inhibition at 10 µM (A. baumannii NCTC 13423; Acinetobacter baumannii, NCTC13423, 10 µM, read-out: Average inhibition %, planktonic cells turbidity): 0%
inhibition at 15 µM (A. baumannii NCTC 13423; Acinetobacter baumannii, NCTC13423, 15 µM, read-out: Average inhibition %, biofilms biomass): 44.1 ± 26.9%
inhibition at 15 µM (A. baumannii NCTC 13423; Acinetobacter baumannii, NCTC13423, 15 µM, read-out: Average inhibition %, planktonic cells turbidity): 71.1 ± 37.7%
inhibition at 25 µM (A. baumannii NCTC 13423; Acinetobacter baumannii, NCTC13423, 25 µM, read-out: Average inhibition %, biofilms biomass): 79.2 ± 13.4%
inhibition at 25 µM (A. baumannii NCTC 13423; Acinetobacter baumannii, NCTC13423, 25 µM, read-out: Average inhibition %, planktonic cells turbidity): 98.8 ± 2%
inhibition at 50 µM (A. baumannii NCTC 13423; Acinetobacter baumannii, NCTC13423, 50 µM, read-out: Average inhibition %, biofilms biomass): 84.8 ± 7.8%
inhibition at 50 µM (A. baumannii NCTC 13423; Acinetobacter baumannii, NCTC13423, 50 µM, read-out: Average inhibition %, planktonic cells turbidity): 98.5 ± 1.4%
MIC (A. baumannii NCTC 13423; Acinetobacter baumannii, NCTC13423, pre-exposure, Inactive = no activity up to 50 μM, > = some inhibition but no MIC reached, read-out: MIC A. baumannii NCTC 13423): 25 µM (≈ 7.69 µg/mL)
